ChEMBL document CHEMBL4265872, “Around the macrolide - Impact of 3D structure of macrocycles on lipophilicity and cellular accumulation” (Eur J Med Chem, 2017)

Experiments:
[1] = Chromatographic hydrophobicity, logD of the compound at pH 7.4 by fast-gradient RP-HPLC method; format: physicochemical; details: buffer
[2] = Drug accumulation in human NCI-H292 cells at 3 to 10 uM incubated for 3 hrs by LC-MS analysis relative to azithromycin; format: ADME, cell-based; details: nci-h292, 3 h

Row | SMILES | chromatographic logD [1] | Drug uptake [2] [%]
1 | CCCCCCCC(=O)NCCCN(C)[C@H]1C[C@@H](C)O[C@@H](O[C@@H]2[C@@H](C)[C@H](O[C@H]3C[C@@](C)(OC)[C@@H](O)[C@H](C)O3)[C@@H](C)C(=O)O[C@H](CC)[C@@](C)(O)[C@H](O)[C@@H](C)N(C)C[C@H](C)C[C@@]2(C)O)[C@@H]1O | 3.74 | 457
2 | CCCCCCCC(=O)NCCCN1C[C@H](C)C[C@@](C)(O)[C@H](O[C@@H]2O[C@H](C)C[C@H](N(C)C)[C@H]2O)[C@@H](C)[C@H](O[C@H]2C[C@@](C)(OC)[C@@H](O)[C@H](C)O2)[C@@H](C)C(=O)O[C@H](CC)[C@@](C)(O)[C@H](O)[C@H]1C | 3.74 | 207
3 | CCC(=O)NCCCO[C@@H]1[C@@H](C)N(C)C[C@H](C)C[C@@](C)(O)[C@H](O[C@@H]2O[C@H](C)C[C@H](N(C)C)[C@H]2O)[C@@H](C)[C@H](O[C@H]2C[C@@](C)(OC)[C@@H](O)[C@H](C)O2)[C@@H](C)C(=O)O[C@H](CC)[C@@]1(C)O | 2.74 | 41
4 | CCC(=O)NCCCO[C@H]1[C@H](C)[C@@H](O[C@@H]2O[C@H](C)C[C@H](N(C)C)[C@H]2O)[C@](C)(O)C[C@@H](C)CN(C)[C@H](C)[C@@H](O)[C@](C)(O)[C@@H](CC)OC(=O)[C@@H]1C | 1.6 | 22
5 | CC[C@H]1OC(=O)[C@H](C)[C@@H](O[C@H]2C[C@@](C)(OC)[C@@H](O)[C@H](C)O2)[C@H](C)[C@@H](O[C@@H]2O[C@H](C)C[C@H](N(C)C)[C@H]2OCCCNC(=O)COC)[C@](C)(O)C[C@@H](C)CN(C)[C@H](C)[C@@H](O)[C@]1(C)O | 2.54 | 22
6 | CC[C@H]1OC(=O)[C@H](C)[C@@H](O[C@H]2C[C@@](C)(OC)[C@@H](O)[C@H](C)O2)[C@H](C)[C@@H](O[C@@H]2O[C@H](C)C[C@H](N(C)C)[C@H]2OCCCNC(=O)c2c(C)nn(C)c2Cl)[C@](C)(O)C[C@@H](C)CN(C)[C@H](C)[C@@H](O)[C@]1(C)O | 3.08 | 95
7 | CC[C@H]1OC(=O)[C@H](C)[C@@H](O[C@H]2C[C@@](C)(OC)[C@@H](O)[C@H](C)O2)[C@H](C)[C@@H](O[C@@H]2O[C@H](C)C[C@H](N(C)C)[C@H]2O)[C@](C)(O)C[C@@H](C)CN(CCCNC(=O)c2c(C)nn(C)c2Cl)[C@H](C)[C@@H](O)[C@]1(C)O | 2.2 | 5
8 | CCCCCCCC(=O)NCCCO[C@@H]1[C@@H](C)N(C)C[C@H](C)C[C@@](C)(O)[C@H](O[C@@H]2O[C@H](C)C[C@H](N(C)C)[C@H]2O)[C@@H](C)[C@H](O[C@H]2C[C@@](C)(OC)[C@@H](O)[C@H](C)O2)[C@@H](C)C(=O)O[C@H](CC)[C@@]1(C)O | 5.18 | 756
9 | CC[C@H]1OC(=O)[C@H](C)[C@@H](O[C@H]2C[C@@](C)(OC)[C@@H](O)[C@H](C)O2)[C@H](C)[C@@H](O[C@@H]2O[C@H](C)C[C@H](N(C)CCCNC(C)=O)[C@H]2O)[C@](C)(O)C[C@@H](C)CN(C)[C@H](C)[C@@H](O)[C@]1(C)O | 2.06 | 5
10 | CCCCCCCC(=O)NCCCO[C@H]1[C@H](C)O[C@@H](O[C@H]2[C@H](C)[C@@H](O[C@@H]3O[C@H](C)C[C@H](N(C)C)[C@H]3O)[C@](C)(OC)C[C@@H](C)C(=O)[C@H](C)[C@@H](O)[C@](C)(O)[C@@H](CC)OC(=O)[C@@H]2C)C[C@@]1(C)OC | 6.02 | 281
11 | CCCCCCCC(=O)NCCCN1C[C@H](C)C[C@@](C)(O)[C@H](O[C@@H]2O[C@H](C)C[C@H](N(C)C)[C@H]2O)[C@@H](C)[C@H](O)[C@@H](C)C(=O)O[C@H](CC)[C@@](C)(O)[C@H](O)[C@H]1C | 3.08 | 80
12 | CCCCC(=O)NCCCN(C)[C@H]1C[C@@H](C)O[C@@H](O[C@@H]2[C@@H](C)[C@H](O[C@H]3C[C@@](C)(OC)[C@@H](O)[C@H](C)O3)[C@@H](C)C(=O)O[C@H](CC)[C@@](C)(O)[C@H](O)[C@@H](C)N(C)C[C@H](C)C[C@@]2(C)O)[C@@H]1O | 3.08 | 75
13 | CCC(=O)NCCCO[C@H]1[C@H](C)O[C@@H](O[C@H]2[C@H](C)[C@@H](O[C@@H]3O[C@H](C)C[C@H](N(C)C)[C@H]3O)[C@](C)(O)C[C@@H](C)CN(C)[C@H](C)[C@@H](O)[C@](C)(O)[C@@H](CC)OC(=O)[C@@H]2C)C[C@@]1(C)OC | 2.54 | 15
14 | CCC(=O)NCCCO[C@H]1[C@H](O[C@@H]2[C@@H](C)[C@H](O[C@H]3C[C@@](C)(OC)[C@@H](O)[C@H](C)O3)[C@@H](C)C(=O)O[C@H](CC)[C@@](C)(O)[C@H](O)[C@@H](C)N(C)C[C@H](C)C[C@@]2(C)O)O[C@H](C)C[C@@H]1N(C)C | 2.7 | 41
15 | CCCCCCCC(=O)NCCCN(C)[C@H]1C[C@@H](C)O[C@@H](O[C@@H]2[C@@H](C)[C@H](O)[C@@H](C)C(=O)O[C@H](CC)[C@@](C)(O)[C@H](O)[C@@H](C)N(C)C[C@H](C)C[C@@]2(C)O)[C@@H]1O | 4.84 | 226
16 | CC[C@H]1OC(=O)[C@H](C)[C@@H](O)[C@H](C)[C@@H](O)[C@](C)(O)C[C@@H](C)CN(C)[C@H](C)[C@@H](O)[C@]1(C)O [AZITHROMYCIN AGLYCONE] | 1.29 | 13
17 | CC[C@H]1OC(=O)[C@H](C)[C@@H](O[C@H]2C[C@@](C)(OC)[C@@H](O)[C@H](C)O2)[C@H](C)[C@@H](O[C@@H]2O[C@H](C)C[C@H](N(C)C)[C@H]2O)[C@](C)(O)C[C@@H](C)CN(C)[C@H](C)[C@@H](O)[C@]1(C)O [AZITHROMYCIN] | 2.11 | 100
18 | CC[C@H]1OC(=O)[C@H](C)[C@@H](O[C@H]2C[C@@](C)(OC)[C@@H](O)[C@H](C)O2)[C@H](C)[C@@H](O[C@@H]2O[C@H](C)C[C@H](N(C)C)[C@H]2O)[C@](C)(OC)C[C@@H](C)C(=O)[C@H](C)[C@@H](O)[C@]1(C)O [CLARITHROMYCIN] | 3.5 | 35
19 | CC[C@H]1OC(=O)[C@H](C)[C@@H](O)[C@H](C)[C@@H](O[C@@H]2O[C@H](C)C[C@H](N(C)C)[C@H]2O)[C@](C)(O)C[C@@H](C)CN(C)[C@H](C)[C@@H](O)[C@]1(C)O [DESCLADINOSYL AZITHROMYCIN] | 1.35 | 56
